Data from patent publication US20080058373A1, “Compositions and Methods for Treating or Preventing Glaucoma or Progression Thereof” (priority 2006, published 2008).

How the values were obtained:
[1] = test system: New Zealand White rabbits; assay: Intraocular pressure (IOP) in rabbits, topical dosing four times daily; type: in vivo; settings: P.M. readings
Protocol: Seventy-five rabbits underwent two weeks of IOP training to condition them for IOP measurement. IOP was determined for both eyes of each animal using a Medtronic Solan, Model 30 classic pneumatonometer. Proparacaine hydrochloride 0.5% (1 drop) was delivered to each eye prior to IOP measurement. A two-point diurnal curve was established: IOP was recorded on Monday, Wednesday, and Friday of each week, at 8 a.m. and 12 p.m., with a ±1 hour range for each of these times. The time of the measurements was recorded.
(§1) On Days 1-31, animals received daily topical doses of the appropriate test article into the right eye. Animals were dosed four times per day, with doses administered 2 hours apart. Doses were administered using a calibrated 50-μL pipette. The eyelids were held close for 10 seconds immediately following dosing. The time of each dose administration was recorded.
Intraocular pressure (“IOP”) was determined for both eyes of each animal on Days 3, 5, 10, 12, 16, 18, 22, 24, 26, 30, and 32. IOP was evaluated with a Medtronic Solan, Model 30 classic pneumatonometer. Proparacaine hydrochloride 0.5% (1 drop) was delivered to each eye prior to IOP measurement. IOP was measured on Monday, Wednesday, and Friday of each week. A two-point diurnal curve was established: IOP was recorded at 8 a.m. and 12 p.m. on Day 3, and at 8 a.m. and 2 p.m. on later days, with a ±1 hour range for each of these times. The time of the measurements was recorded.
Descriptive statistics were prepared for IOP data of each treatment group (left and right eyes separately) at each measurement interval. The statistics included the number of observations (“N”), mean, standard deviation (“STD”), and standard error (“SEM”). Statistical analyses were conducted on IOP results using Statistical Analysis Systems (SAS Institute, Inc., Cary, N.C., V8.0). Parameters were evaluated using analysis of variance/GLM Procedure followed by Tukey's Standardized Range Test (Tukey, 1985) for post hoc comparisons of group means. The level of significance was set at a probability of p<0.05 for all statistical procedures. Group IOP means were compared at each interval, with left and right eyes compared separately.

[2] = test system: New Zealand White rabbits; assay: Mortality/morbidity in the rabbit IOP study; type: in vivo; settings: for Day of Death (day euthanized or found dead) / Recorded Notes (mortality): individual rabbits; for Mortality (animals found dead or euthanized prior to study completion/number of animals in group): topical right eye 4 × daily, Day 33; for Mortality: rabbits that died or were euthanized between Days 11 and 33: right eye four times daily, Days 1-31
Protocol: as §1
Animals determined to be moribund were euthanized with an intravenous injection of commercial euthanasia solution.

[3] = 1 mg/g (0.05 mg/dose) 4 × daily, Group D
[4] = 10 mg/g (0.5 mg/dose) 4 × daily, Group B

SMILES: Cc1ccc2c(NCC(O)(CC(C)(C)c3cc(F)cc4c3OCC4)C(F)(F)F)cccc2n1 (stereo not shown)
- Intraocular Pressure (MEAN) ([1]; treated right eyes, Day 3, 1 mg/g (Group D)): 24.7 mmHg
- Intraocular Pressure (MEAN) ([1]; treated right eyes, Day 3, 5 mg/g (Group C)): 23.6 mmHg
- Intraocular Pressure (MEAN) ([1]; treated right eyes, Day 3, 10 mg/g (Group B)): 23.1 mmHg
- Intraocular Pressure (MEAN) ([1]; treated right eyes, Day 5, 1 mg/g (Group D)): 25.5 mmHg
- Intraocular Pressure (MEAN) ([1]; treated right eyes, Day 5, 5 mg/g (Group C)): 24.8 mmHg
- Intraocular Pressure (MEAN) ([1]; treated right eyes, Day 5, 10 mg/g (Group B)): 25.7 mmHg
- Intraocular Pressure (MEAN) ([1]; treated right eyes, Day 10, 1 mg/g (Group D)): 25.3 mmHg
- Intraocular Pressure (MEAN) ([1]; treated right eyes, Day 10, 5 mg/g (Group C)): 25.6 mmHg
- Intraocular Pressure (MEAN) ([1]; treated right eyes, Day 10, 10 mg/g (Group B)): 24.3 mmHg
- Intraocular Pressure (MEAN) ([1]; treated right eyes, Day 12, 1 mg/g (Group D)): 24.0 mmHg
- Intraocular Pressure (MEAN) ([1]; treated right eyes, Day 12, 5 mg/g (Group C)): 23.4 mmHg
- Intraocular Pressure (MEAN) ([1]; treated right eyes, Day 12, 10 mg/g (Group B)): 23.8 mmHg
- Intraocular Pressure (MEAN) ([1]; treated right eyes, Day 16, 1 mg/g (Group D)): 22.0 mmHg
- Intraocular Pressure (MEAN) ([1]; treated right eyes, Day 16, 5 mg/g (Group C)): 21.4 mmHg
- Intraocular Pressure (MEAN) ([1]; treated right eyes, Day 16, 10 mg/g (Group B)): 21.6 mmHg
- Intraocular Pressure (MEAN) ([1]; treated right eyes, Day 18, 1 mg/g (Group D)): 23.1 mmHg
- Intraocular Pressure (MEAN) ([1]; treated right eyes, Day 18, 5 mg/g (Group C)): 21.6 mmHg
- Intraocular Pressure (MEAN) ([1]; treated right eyes, Day 18, 10 mg/g (Group B)): 22.5 mmHg
- Intraocular Pressure (MEAN) ([1]; treated right eyes, Day 22, 1 mg/g (Group D)): 22.5 mmHg
- Intraocular Pressure (MEAN) ([1]; treated right eyes, Day 22, 5 mg/g (Group C)): 22.8 mmHg
- Intraocular Pressure (MEAN) ([1]; treated right eyes, Day 22, 10 mg/g (Group B)): 23.1 mmHg
- Intraocular Pressure (MEAN) ([1]; treated right eyes, Day 24, 1 mg/g (Group D)): 23.6 mmHg
- Intraocular Pressure (MEAN) ([1]; treated right eyes, Day 24, 5 mg/g (Group C)): 23.4 mmHg
- Intraocular Pressure (MEAN) ([1]; treated right eyes, Day 24, 10 mg/g (Group B)): 22.8 mmHg
- Intraocular Pressure (MEAN) ([1]; treated right eyes, Day 26, 1 mg/g (Group D)): 22.6 mmHg
- Intraocular Pressure (MEAN) ([1]; treated right eyes, Day 26, 5 mg/g (Group C)): 22.2 mmHg
- Intraocular Pressure (MEAN) ([1]; treated right eyes, Day 26, 10 mg/g (Group B)): 20.9 mmHg
- Intraocular Pressure (MEAN) ([1]; treated right eyes, Day 30, 10 mg/g (Group B)): 22.4 mmHg
- Intraocular Pressure (MEAN) ([1]; untreated left eyes, Day 3, 1 mg/g (Group D)): 25.0 mmHg
- Intraocular Pressure (MEAN) ([1]; untreated left eyes, Day 3, 5 mg/g (Group C)): 23.9 mmHg
- Intraocular Pressure (MEAN) ([1]; untreated left eyes, Day 3, 10 mg/g (Group B)): 23.3 mmHg
- Intraocular Pressure (MEAN) ([1]; untreated left eyes, Day 5, 1 mg/g (Group D)): 24.7 mmHg
- Intraocular Pressure (MEAN) ([1]; untreated left eyes, Day 5, 5 mg/g (Group C)): 24.8 mmHg
- Intraocular Pressure (MEAN) ([1]; untreated left eyes, Day 5, 10 mg/g (Group B)): 25.2 mmHg
- Intraocular Pressure (MEAN) ([1]; untreated left eyes, Day 10, 1 mg/g (Group D)): 24.9 mmHg
- Intraocular Pressure (MEAN) ([1]; untreated left eyes, Day 10, 5 mg/g (Group C)): 24.6 mmHg
- Intraocular Pressure (MEAN) ([1]; untreated left eyes, Day 10, 10 mg/g (Group B)): 23.5 mmHg
- Intraocular Pressure (MEAN) ([1]; untreated left eyes, Day 12, 1 mg/g (Group D)): 23.7 mmHg
- Intraocular Pressure (MEAN) ([1]; untreated left eyes, Day 12, 5 mg/g (Group C)): 23.3 mmHg
- Intraocular Pressure (MEAN) ([1]; untreated left eyes, Day 12, 10 mg/g (Group B)): 24.1 mmHg
- Intraocular Pressure (MEAN) ([1]; untreated left eyes, Day 16, 1 mg/g (Group D)): 21.9 mmHg
- Intraocular Pressure (MEAN) ([1]; untreated left eyes, Day 16, 5 mg/g (Group C)): 20.4 mmHg
- Intraocular Pressure (MEAN) ([1]; untreated left eyes, Day 16, 10 mg/g (Group B)): 21.4 mmHg
- Intraocular Pressure (MEAN) ([1]; untreated left eyes, Day 18, 1 mg/g (Group D)): 22.7 mmHg
- Intraocular Pressure (MEAN) ([1]; untreated left eyes, Day 18, 5 mg/g (Group C)): 21.9 mmHg
- Intraocular Pressure (MEAN) ([1]; untreated left eyes, Day 18, 10 mg/g (Group B)): 22.1 mmHg
- Intraocular Pressure (MEAN) ([1]; untreated left eyes, Day 22, 1 mg/g (Group D)): 22.1 mmHg
- Intraocular Pressure (MEAN) ([1]; untreated left eyes, Day 22, 5 mg/g (Group C)): 22.1 mmHg
- Intraocular Pressure (MEAN) ([1]; untreated left eyes, Day 22, 10 mg/g (Group B)): 22.6 mmHg
- Intraocular Pressure (MEAN) ([1]; untreated left eyes, Day 24, 1 mg/g (Group D)): 22.9 mmHg
- Intraocular Pressure (MEAN) ([1]; untreated left eyes, Day 24, 5 mg/g (Group C)): 22.2 mmHg
- Intraocular Pressure (MEAN) ([1]; untreated left eyes, Day 24, 10 mg/g (Group B)): 22.8 mmHg
- Intraocular Pressure (MEAN) ([1]; untreated left eyes, Day 26, 1 mg/g (Group D)): 22.1 mmHg
- Intraocular Pressure (MEAN) ([1]; untreated left eyes, Day 26, 5 mg/g (Group C)): 22.3 mmHg
- Intraocular Pressure (MEAN) ([1]; untreated left eyes, Day 26, 10 mg/g (Group B)): 21.4 mmHg
- Intraocular Pressure (MEAN) ([1]; untreated left eyes, Day 30, 1 mg/g (Group D)): 21.3 mmHg
- Intraocular Pressure (MEAN) ([1]; untreated left eyes, Day 30, 5 mg/g (Group C)): 20.9 mmHg
- Intraocular Pressure (MEAN) ([1]; untreated left eyes, Day 30, 10 mg/g (Group B)): 21.7 mmHg
- Intraocular Pressure (MEAN) ([1]; untreated left eyes, Day 32, 1 mg/g (Group D)): 21.9 mmHg
- Intraocular Pressure (MEAN) ([1]; untreated left eyes, Day 32, 5 mg/g (Group C)): 21.5 mmHg
- Intraocular Pressure (MEAN) ([1]; untreated left eyes, Day 32, 10 mg/g (Group B)): 22.6 mmHg
- Intraocular Pressure (MEAN) ([1]; untreated left eyes, Pre-Study, 1 mg/g (Group D)): 24.2 mmHg
- Intraocular Pressure (MEAN) ([1]; untreated left eyes, Pre-Study, 5 mg/g (Group C)): 24.4 mmHg
- Intraocular Pressure (MEAN) ([1]; untreated left eyes, Pre-Study, 10 mg/g (Group B)): 23.9 mmHg
- Day of Death (day euthanized or found dead) [2, 3]: 29
- Recorded Notes (mortality) [2, 3]: Found dead.
- Mortality (animals found dead or euthanized prior to study completion/number of animals in group) ([2]; 1 mg/g, 0.05 mg/dose): 1/10^(6)
- Mortality: rabbits that died or were euthanized between Days 11 and 33 ([2]; 5 mg/g suspension ([…])): two of ten
- Mortality (animals found dead or euthanized prior to study completion/number of animals in group) ([2]; 5 mg/g, […]): 2/10^(5)
- Day of Death (day euthanized or found dead) [2, 4]: 11
- Recorded Notes (mortality) [2, 4]: Found dead. Noted on Day 9 to have significant diarrhea and
- Mortality: rabbits that died or were euthanized between Days 11 and 33 ([2]; 10 mg/g suspension (0.5 mg/dose)): one of ten
- Mortality (animals found dead or euthanized prior to study completion/number of animals in group) ([2]; 10 mg/g, 0.5 mg/dose): 1/10^(4)
